Data: patent US20250235499A1, “ANTI-OVARIAN CANCER PHARMACEUTICAL COMPOSITION AND ACTION TARGET THEREOF” (Zhejiang Chinese Medical University, priority 2024, published 2025)

How the values were obtained:
Hey ovarian cancer cell = assay: Tumor bearing nude mouse model (tumor volume, tumor inhibition rate, body weight); assay type: in vivo, BALB/c nude mice; conditions: intraperitoneal, 15 days; DDP 3 mg/kg, CA 80 mg/kg, BDMC 5 mg/kg; compared to the Control group, P<0.01
Experimental: Newly housed BALB/c nude mice were placed in an SPF grade feeding room laminar flow rack for adaptive feeding for one week, and the experimental animal status was adjusted. A Hey ovarian cancer cell was cultivated to the logarithmic growth stage, and the original culture medium was discarded. The Hey ovarian cancer cell was washed with PBS buffer, added with 0.1% trypsin digestion for digestion, added with the corresponding culture medium to terminate digestion, centrifuged at 1000 rpm for 3 minutes, and added with PBS buffer to prepare a cell suspension. The cell was counted using a hemocytometer, and the cell concentration was quantified to 5×10^7 cells/mL. After grasping and fixing the nude mouse with the left hand, and the skin at a needle inserting site on the right forelimb axilla of the nude mouse was disinfected with a 75% alcohol cotton ball. A disposable 1 mL syringe was used to inject approximately 100 μL of cell suspension subcutaneously into the posterior axilla of the right forelimb in an oblique stabbing inserting needle mode, so that each nude mouse was injected with approximately 5×10^6 cells. After vaccination, the needle inserting site was gently pressed with a cotton ball to prevent the cell suspension from leaking from a needle hole. The growth status of tumors at the vaccination site of nude mice was observed daily. After about one week, if the tumors at the vaccination site were compacted and appeared light red in color, it could be considered as successful tumor growth. At this time, the nude mice were randomly divided into 5 groups, a Control group intraperitoneally injected with physiological saline for 1 day each time; a DDP group intraperitoneally injected with cisplatin, 3 mg/kg, 3 d/time; a CA group intraperitoneally injected with CA, 80 mg/kg, 1 d/time; a BDMC group intraperitoneally injected with BDMC, 5 mg/kg, 1 d/time; a CA+BDMC group intraperitoneally injected with CA 80 mg/kg+BDMC 5 mg/kg, 1 d/time, 8 animals per group. A tumor length (L) and a […] were measured with a vernier caliper every 3 days to calculate a tumor volume. After 15 days of administration, nude mice were euthanized by dislocation of cervical vertebra, and tumor tissue was dissected. The tumor weight was weighed to calculate the tumor inhibition rate. The tumor tissue was stored in two batches at −80° C. and fixed with 4% paraformaldehyde.

Hey ovarian cancer cells = assay: Cell migration and invasion (small chamber) with MCM2 knockdown or overexpression; assay type: cell-based, human
Experimental: (§1) The night before collecting cells, small chambers were placed in a 24 well plate. A matrix gel was taken out from the −20° C. refrigerator and placed to melt naturally on ice. The thawed matrix gel was mixed with serum-free medium in a ratio of 1:5, and 100 μL of the mixture was added to each chamber. After preparation, the 24 well plate was placed in the incubator overnight. The next day, SKOV3 and Hey ovarian cancer cells in logarithmic growth phase were knocked down with MCM2 (Control group, sh-NC group, sh-MCM2 group) and overexpressed with MCM2 (Control group, OE-NC group, OE-MCM2 group). The original culture medium was discarded, washed with PBS buffer, and digested with 0.1% trypsin. A corresponding serum-free culture medium was added to prepare a cell suspension. Cells were counted using a hemocytometer and the cell concentration was quantified at 5×10^4 cells/mL. The 24 well plate was taken out and placed in a small chamber for a migration experiment and the 24 well plate with the matrix gel for an invasion experiment. 200 μL of a corresponding cell suspension was added to an upper chamber, and 700 μL of a corresponding culture medium containing 10% FBS was added to a lower chamber. The 24 well plate was further placed in an incubator for cultivation. The 24 well plate for the migration experiment was cultured for 24 hours before being taken out, while the 24 well plate for the invasion experiment was cultured for 48 hours before being taken out. The culture medium in the small chamber was poured out. The inside of the small chamber was cleaned with a cotton swab, and washed twice with the PBS buffer. The small chamber was fixed in 4% paraformaldehyde for 30 minutes, and stained in 1% crystal violet solution for 10 minutes after fixation. The small chamber was taken out, washed twice with the PBS buffer, dried with an absorbent paper, observed and counted under a microscope. The impact of CA, BDMC, and combined administration intervention on cell migration after knocking down MCM2 in SKOV3 and Hey ovarian cancer cells was shown in FIGS. 19A-19D. The scale in FIGS. 19A-19D was 10 μM; A represented the migration of SKOV3 cells; B represented the migration of Hey cells; C represented the invasion of SKOV3 cells; and D represented the invasion of Hey cells. Compared with the sh-NC group, ##P<0.01; compared with the sh-NC+CA+BDMC group, &&P<0.01; and ** P<0.01. The impact of CA, BDMC, and combined administration intervention on cell migration after overexpression of MCM2 on the SKOV3 and Hey ovarian cancer cells was shown in FIGS. 20A-20D. The scale in FIGS. 20A-20D was 10 μM, A represented the migration of SKOV3 cells; B represented the migration of Hey cells; C represented the invasion of SKOV3 cells; and D represented the invasion of Hey cells. Compared with the OE-NC group, ##P<0.01; compared with the OE-NC+CA+BDMC group, &&P<0.01; and compared with the OE-MCM2+CA+BDMC group, ΔP<0.05, ΔΔP<0.01; and ** P<0.01.

[1] = system: SKOV3 ovarian cancer cells; assay: as above; assay type: cell-based, human
Experimental: as §1

[2] = system: E-cadherin, N-cadherin, Vimentin in Hey cells; assay: Expression of EMT related proteins in cells; assay type: cell-based, human
[3] = system: E-cadherin, N-cadherin, Vimentin; assay: Western Blot of tumor body EMT related proteins in tumor bearing nude mice; assay type: in vivo, BALB/c nude mice; conditions: nude mouse tumor body, compared to the Control group
Text: The expression of EMT related proteins was shown in FIG. 30: (1) represented the Control group; (2) represented the DDP group; (3) represented the CA group; (4) represented the BDMC group; and (5) represented the CA+BDMC group.

[4] = Hey OE-MCM2 cells (MCM2 overexpression), vs OE-MCM2 group
[5] = Hey OE-NC cells (empty vector), vs OE-NC group
[6] = Hey sh-MCM2 cells (MCM2 knockdown), vs sh-MCM2 group
[7] = Hey sh-NC cells (empty vector), vs sh-NC group
[8] = SKOV3 OE-MCM2 cells (MCM2 overexpression), vs OE-MCM2 group
[9] = SKOV3 OE-NC cells (empty vector), vs OE-NC group
[10] = SKOV3 sh-MCM2 cells (MCM2 knockdown), vs sh-MCM2 group
[11] = SKOV3 sh-NC cells (empty vector), vs sh-NC group

SMILES: COc1ccc(-c2coc3cc(O)ccc3c2=O)cc1O [CA, calycosin]
- tumor inhibition rate (Hey ovarian cancer cell): significantly increased
- tumor volume size (Hey ovarian cancer cell): significantly reduced
- number of the invading cells (Hey ovarian cancer cells; [4]): no significant change
- number of the migrating cells (Hey ovarian cancer cells; [4]): no significant change
- number of the invading cells (Hey ovarian cancer cells; [5]): significantly reduced
- number of the migrating cells (Hey ovarian cancer cells; [5]): significantly reduced
- number of the invading cells (Hey ovarian cancer cells; [6]): no significant change
- number of the migrating cells (Hey ovarian cancer cells; [6]): no significant change
- number of the invading cells (Hey ovarian cancer cells; [7]): significantly reduced
- number of the migrating cells (Hey ovarian cancer cells; [7]): significantly reduced
- number of the invading cells [1, 8]: no significant change
- number of the migrating cells [1, 8]: no significant change
- number of the invading cells [1, 9]: significantly reduced
- number of the migrating cells [1, 9]: significantly reduced
- number of the invading cells [1, 10]: no significant change
- number of the migrating cells [1, 10]: no significant change
- number of the invading cells [1, 11]: significantly reduced
- number of the migrating cells [1, 11]: significantly reduced
- expression of E-cadherin [2, 4]: no significant change
- expression of N-cadherin [2, 4]: no significant change
- expression of Vimentin [2, 4]: no significant change
- expression of E-cadherin [2, 5]: significantly increased
- expression of N-cadherin [2, 5]: significantly decreased
- expression of Vimentin [2, 5]: significantly decreased
- expression of E-cadherin [2, 6]: no significant change
- expression of N-cadherin [2, 6]: no significant change
- expression of Vimentin [2, 6]: no significant change
- expression of E-cadherin [2, 7]: significantly increased
- expression of N-cadherin [2, 7]: significantly decreased
- expression of Vimentin [2, 7]: significantly decreased
- expression of E-cadherin protein (Western Blot) [3]: significantly increased
- expression of N-cadherin protein (Western Blot) [3]: significantly decreased
- expression of Vimentin protein (Western Blot) [3]: significantly decreased
